Measured values as given in paper PMC10650131 (International Journal of Molecular Sciences, 2023).
Where “and” joins values, the source holds several entries; their conditions need not be identical. Identical values can stand only once. Entries after “also recorded” stand apart in the source; their conditions may differ. Like-named read-outs stand apart in the source and are kept apart here.

How the values were obtained:
[1] = molecular target: T1, hD4.4R (Homo sapiens, UniProt P21917); assay: Cell-based functional GPCR assay, cAMP, CHO-D4R; details: for % Stimulation, hD4.4R: 100 μM compound, % of control agonist response (300 nM DA)
T1 sequence (P21917 1-419): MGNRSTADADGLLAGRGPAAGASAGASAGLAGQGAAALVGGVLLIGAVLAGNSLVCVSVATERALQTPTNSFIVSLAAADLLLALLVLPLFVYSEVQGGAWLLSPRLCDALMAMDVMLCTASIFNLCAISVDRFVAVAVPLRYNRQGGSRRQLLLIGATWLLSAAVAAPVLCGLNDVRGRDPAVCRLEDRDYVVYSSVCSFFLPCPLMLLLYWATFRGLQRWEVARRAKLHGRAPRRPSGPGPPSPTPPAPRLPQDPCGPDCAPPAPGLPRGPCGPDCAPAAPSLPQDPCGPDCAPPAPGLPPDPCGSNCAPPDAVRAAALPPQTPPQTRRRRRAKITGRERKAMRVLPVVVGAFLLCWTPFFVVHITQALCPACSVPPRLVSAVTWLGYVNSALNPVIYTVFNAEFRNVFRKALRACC
Method: (§1) Cell-based functional GPCR assays were conducted in CHO cells and Ba/F3 cells transfected with a plasmid containing the GPCR gene of interest. The functional activity of the test compounds (agonist or antagonist) was evaluated by measuring their effects on cAMP modulation or Ca^2+ ion mobilization, depending on the receptor type. All assays were performed at Eurofins Cerep (Le Bois I’Eveque, France) following their in-house protocol, as stated in our previous reports.
(§2) The functional activity of the test compounds on D1R, D3R, and D4R was assessed by evaluating the effect on cAMP modulation.

[2] = molecular target: hD3R (Homo sapiens, UniProt P35462); assay: Cell-based functional GPCR assay, cAMP, CHO-D3R
Method: as §1, §2

[3] = molecular target: T2, h5HT1AR (Homo sapiens, UniProt P08908); assay: Cell-based functional GPCR assay, Ca2+ mobilization, Ba/F3-5HT1AR; details: for % Stimulation, h5HT1AR: 100 μM compound, % of control agonist response (2.5 μM serotonin)
T2 construct: host or cells: Ba/F3 (Ba/F3-5HT1AR)
T2 sequence (P08908 1-422): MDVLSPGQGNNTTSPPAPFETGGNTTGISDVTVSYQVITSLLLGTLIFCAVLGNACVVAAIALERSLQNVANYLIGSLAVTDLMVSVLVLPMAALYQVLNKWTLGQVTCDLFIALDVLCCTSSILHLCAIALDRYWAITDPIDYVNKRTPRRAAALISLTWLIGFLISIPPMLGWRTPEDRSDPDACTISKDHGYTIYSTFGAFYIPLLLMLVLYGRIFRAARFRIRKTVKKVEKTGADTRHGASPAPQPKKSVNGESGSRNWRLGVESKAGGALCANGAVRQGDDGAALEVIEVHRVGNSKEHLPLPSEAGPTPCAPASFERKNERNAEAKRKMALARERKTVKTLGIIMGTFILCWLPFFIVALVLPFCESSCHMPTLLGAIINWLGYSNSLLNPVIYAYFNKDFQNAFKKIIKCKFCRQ
Method: as §1
(§3) The functional activity of the test compounds on D2R and 5HT1AR was tested by fluorimetrically evaluating their effect on cytosolic Ca^2+ ion mobilization. […] Then, a fluorescent probe (Fluo8, AAT Bioquest, Sunnyvale, CA, USA) mixed with probenecid in HBSS (Invitrogen, Carlsbad, CA, USA) supplemented with […] (Invitrogen) (pH 7.4) was added to each well, and the cells were allowed to equilibrate for 60 min at 37 °C. […] We then measured the fluorescent intensity, which varied in proportion to the free cytosolic Ca^2+ ion concentration.

[4] = molecular target: hD1R (Homo sapiens, UniProt P21728); assay: Cell-based functional GPCR assay, cAMP, CHO-D1R; details: for % Stimulation, hD1R: 100 μM compound, % of control agonist response (10 μM DA)
Method: as §1, §2

[5] = molecular target: T3, hMAO-B (Homo sapiens, UniProt P27338); assay: In vitro hMAO-B inhibition and enzyme kinetics, chemiluminescent MAO-Glo assay; type: biochemical; details: for SI (selective index): ratio of hMAO-A IC50/hMAO-B IC50; for IC50: recombinant hMAO-B, mean ± SD of triplicate experiments
T3 construct: purchased Sigma-Aldrich
T3 sequence (P27338 1-520): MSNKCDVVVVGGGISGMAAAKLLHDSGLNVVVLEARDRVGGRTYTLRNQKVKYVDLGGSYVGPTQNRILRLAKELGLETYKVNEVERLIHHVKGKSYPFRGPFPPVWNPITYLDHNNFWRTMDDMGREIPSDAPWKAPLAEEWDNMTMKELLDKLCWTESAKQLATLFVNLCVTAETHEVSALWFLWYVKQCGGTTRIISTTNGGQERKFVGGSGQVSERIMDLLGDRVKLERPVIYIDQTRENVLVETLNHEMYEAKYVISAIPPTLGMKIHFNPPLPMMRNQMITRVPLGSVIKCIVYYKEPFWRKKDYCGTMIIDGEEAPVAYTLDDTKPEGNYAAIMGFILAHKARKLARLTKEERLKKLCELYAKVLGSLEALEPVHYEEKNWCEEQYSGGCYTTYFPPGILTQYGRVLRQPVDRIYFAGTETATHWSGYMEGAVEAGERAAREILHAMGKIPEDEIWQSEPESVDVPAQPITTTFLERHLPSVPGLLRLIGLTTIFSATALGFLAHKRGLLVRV
Method: (§4) A chemiluminescent assay was performed in a white, opaque 96-well plate using the MAO-Glo kit (Promega, Madison, WI, USA) to evaluate human monoamine oxidase (hMAO) inhibitory potential. Detailed experimental conditions and procedures were reported previously. The test compounds were evaluated at different concentrations to obtain an IC50 value. The percent of inhibition (%) was obtained with the following equation: % Inhibition = (Ac − As)/Ac × 100, where Ac is the absorbance of the control and As is the absorbance of the sample. For hMAO-A, clorgyline was used as a positive control.
(§5) Kinetic parameters were analyzed using SigmaPlot (v12.0, SPP Inc., Chicago, IL, USA).

[6] = molecular target: T4, hD2LR (Homo sapiens, UniProt P14416); assay: Cell-based functional GPCR assay, Ca2+ mobilization, CHO-D2R; details: for % Stimulation, hD2LR: 100 μM compound, % of control agonist response (10 μM DA)
T4 construct: host or cells: CHO (CHO-D2R)
Method: as §1, §3

[7] = molecular target: T5, hMAO-A (Homo sapiens, UniProt P21397); assay: In vitro hMAO-A inhibition and enzyme kinetics, chemiluminescent MAO-Glo assay; type: biochemical; details: recombinant hMAO-A; mean ± SD of triplicate experiments
T5 construct: purchased Sigma-Aldrich
T5 sequence (P21397 1-527): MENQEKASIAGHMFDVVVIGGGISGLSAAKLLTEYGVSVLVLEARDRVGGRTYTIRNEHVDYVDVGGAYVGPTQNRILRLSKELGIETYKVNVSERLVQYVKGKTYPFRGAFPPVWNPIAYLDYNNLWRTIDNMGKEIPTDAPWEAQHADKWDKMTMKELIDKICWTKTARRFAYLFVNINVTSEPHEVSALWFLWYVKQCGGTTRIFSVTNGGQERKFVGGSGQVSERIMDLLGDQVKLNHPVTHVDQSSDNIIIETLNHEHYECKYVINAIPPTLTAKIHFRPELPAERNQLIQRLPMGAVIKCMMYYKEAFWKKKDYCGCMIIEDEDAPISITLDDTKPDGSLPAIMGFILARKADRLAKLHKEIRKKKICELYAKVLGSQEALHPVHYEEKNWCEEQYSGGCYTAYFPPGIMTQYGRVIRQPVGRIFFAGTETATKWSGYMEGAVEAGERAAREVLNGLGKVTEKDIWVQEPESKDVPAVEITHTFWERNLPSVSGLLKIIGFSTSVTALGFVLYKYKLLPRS
Method: as §4, §5

[8] = design: method as in PMID 31173966; details: cited from earlier work
[9] = system: MAO-A; design: method as in earlier work; details: ref 49 (Park et al. 2020); cited from earlier work
[10] = system: male C57BL/6 mice; assay: Forced swim test; type: in vivo, mouse
Method: Male C57BL/6 mice (22–26 g, 7 weeks) were purchased from Orient Bio Inc. (Seongnam-si, Korea), a branch of Charles River Laboratories (Seoul, Republic of Korea), and kept in the University Animal Care Unit for 1 week before the experiments. Five animals were housed per cage and allowed access to water and food ad libitum; the environment was maintained at a constant temperature (23 ± 1 °C) and humidity (60 ± 10%) under a 12 h light/dark cycle (the lights were on from 07:30 to 19:30 h). The treatment and maintenance of the animals were carried out according to the Animal Care and Use Guidelines of Dong-A University, Republic of Korea. All in vivo experiments were performed according to the protocols approved by the Institutional Animal Care and Use Committee of Dong-A University (approved protocol numbers: DIACUC-approved-17-20) and were per the National Institutes of Health guidelines. A forced swim test (FST) was performed in a transparent cylindrical glass cylinder with a diameter of 14 cm and a height of 25 cm filled with 20 cm of water (24 ± 2 °C). Mice were habituated to the experimental environment 1 h before the test. […] Mice were immersed in water and recorded with a video camera for a total of 6 min. Immobility time was analyzed for the last 4 min of the 6 min using a video-based Ethovision System (Noldus, Wageningen, The Netherlands).

T4 sequence (P14416 whole entry): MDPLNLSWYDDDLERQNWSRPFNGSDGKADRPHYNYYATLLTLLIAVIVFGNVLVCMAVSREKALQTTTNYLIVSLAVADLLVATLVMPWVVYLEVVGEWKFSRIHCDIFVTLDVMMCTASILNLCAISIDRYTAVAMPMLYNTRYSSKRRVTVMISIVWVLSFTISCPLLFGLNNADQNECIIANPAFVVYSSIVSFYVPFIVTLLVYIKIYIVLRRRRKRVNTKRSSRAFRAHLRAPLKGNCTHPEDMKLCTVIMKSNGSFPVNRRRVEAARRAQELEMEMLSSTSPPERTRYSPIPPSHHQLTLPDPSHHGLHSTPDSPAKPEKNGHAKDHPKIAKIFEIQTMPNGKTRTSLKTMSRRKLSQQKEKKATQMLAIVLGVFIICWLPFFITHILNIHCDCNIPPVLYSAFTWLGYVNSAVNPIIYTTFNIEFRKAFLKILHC
Sequence of hD1R (P21728 whole entry): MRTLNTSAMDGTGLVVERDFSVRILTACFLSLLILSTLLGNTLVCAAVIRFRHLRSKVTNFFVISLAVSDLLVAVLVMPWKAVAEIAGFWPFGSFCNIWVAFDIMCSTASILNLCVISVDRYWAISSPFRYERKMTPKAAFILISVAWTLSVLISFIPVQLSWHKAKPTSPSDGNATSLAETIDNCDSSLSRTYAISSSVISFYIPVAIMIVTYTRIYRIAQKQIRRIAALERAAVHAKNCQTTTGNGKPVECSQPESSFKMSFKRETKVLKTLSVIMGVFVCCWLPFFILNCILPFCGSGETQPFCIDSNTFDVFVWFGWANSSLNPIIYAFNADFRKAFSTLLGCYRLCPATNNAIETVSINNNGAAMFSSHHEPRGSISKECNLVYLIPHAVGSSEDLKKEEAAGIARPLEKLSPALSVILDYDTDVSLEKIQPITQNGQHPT
Sequence of hD3R (P35462 whole entry): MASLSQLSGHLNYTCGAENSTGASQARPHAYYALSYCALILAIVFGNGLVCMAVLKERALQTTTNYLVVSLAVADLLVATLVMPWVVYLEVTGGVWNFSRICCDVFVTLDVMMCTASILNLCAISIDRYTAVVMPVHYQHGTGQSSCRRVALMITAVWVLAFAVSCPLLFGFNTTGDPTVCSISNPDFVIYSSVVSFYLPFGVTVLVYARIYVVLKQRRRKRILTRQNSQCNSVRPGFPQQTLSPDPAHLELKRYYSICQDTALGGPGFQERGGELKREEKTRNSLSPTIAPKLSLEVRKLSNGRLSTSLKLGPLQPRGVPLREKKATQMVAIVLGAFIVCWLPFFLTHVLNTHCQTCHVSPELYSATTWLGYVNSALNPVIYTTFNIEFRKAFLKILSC

Row | SMILES | inhibition at 100 µM [1] [%] | % Stimulation, hD4.4R [1] [%] | inhibition at 100 µM [2] [%] | inhibition at 100 µM [3] [%] | % Stimulation, h5HT1AR [3] [%] | inhibition at 100 µM [4] [%] | % Stimulation, hD1R [4] [%] | SI (selective index) [5] | IC50 [5] | inhibition at 100 µM [6] [%] | % Stimulation, hD2LR [6] [%] | IC50 [7] [µM] | further results
1 | O=c1c(-c2ccc(O)c(O)c2)coc2cc(O)ccc12 [Compound 2, 3′,4′,7-trihydroxyisoflavone] | -11.2 | 35.8 ± 10.59 | -8 | 7.3 | −1.1 ± 0.42 | 22.2 | −3.1 ± 5.66 | 2.48 | ~70 µM and 71.2 µM | -25.8 | −18.35 ± 0.78 | 177 ± 7.8 | –
2 | C=C(C)[C@@H]1CCC(C)=C[C@H]1c1c(O)cc(CCCCC)cc1O [cannabidiol] | – | – | – | – | – | – | – | – | – | – | – | – | Effect on depressive symptoms ([8]; 10 mg/kg i.v. weekly for four weeks): significantly improve depressive symptoms; Effect on depressive symptoms ([8]; 10 mg/kg p.o.): no significant effects; Effect on depressive symptoms ([8]; 100 mg/kg p.o. weekly for four weeks): significantly improve depressive symptoms
3 | O=c1cc(-c2ccc(O)c(O)c2)oc2cc(O)cc(O)c12 [luteolin, 3′,4′,5,7-tetrahydroxyflavone] | – | – | – | – | – | – | – | – | – | – | – | – | IC50 [9]: 8.57 ± 0.47 µM
4 | CNCCCN1c2ccccc2CCc2ccccc21 [desipramine, reference compound] | – | – | – | – | – | – | – | – | – | – | – | – | Immobility time in forced swimming test ([10]; 15 mg/kg dose p.o., positive control): significant reduction in immobility time
5 | O=c1cc(-c2ccc(O)c(O)c2)oc2cc(O)ccc12 [Compound 1, 3′,4′,7-trihydroxyflavone] | 134 | 10.33 ± 7.46 | -0.97 | 18.1 | −2.9 ± 0.28 | 0.7 | 6.95 ± 14.07 | – | > 150 µM | -40 | −22.45 ± 2.05 | – | inhibition at 12.5 µM ([1]; 12.5 µM compound, read-out: % inhibition of the response of the control agonist, hD4.4R): 40.9%; inhibition at 25 µM ([1]; 25 µM compound, read-out: % inhibition of the response of the control agonist, hD4.4R): 57.6%; inhibition at 50 µM ([1]; 50 µM compound, read-out: % inhibition of the response of the control agonist, hD4.4R): 69%; IC50 ([1]; read-out: IC50, antagonist effect at hD4.4R): 22.5 ± 2.18 µM; Immobility time in forced swimming test ([10]; 3, 10, and 30 mg/kg p.o., 1 h before FST): did not reduce the immobility time; also recorded: none of those doses alleviated the immobility time; also recorded: did not show an antidepressant effect; % Stimulation, hD3R ([2]; 100 μM compound, % of control agonist response (300 nM DA)): 38.5 ± 5.94%
6 | COc1ccc(-c2coc3cc(O)ccc3c2=O)cc1O [Compound 3, calycosin] | -27.3 | 33.63 ± 12.10 | -7.97 | 16.8 | 2.5 ± 0.42 | 47.8 | 5.65 ± 11.53 | 15.82 | 7.19 ± 0.32 µM | -18.6 | −13.8 ± 0.28 | 114 ± 3.39 | Ki ([5]; Lineweaver–Burk plot and its secondary plots, read-out: Inhibition constants (Ki) hMAO-B): 2.56 µM; Inhibition mode, hMAO-B ([5]; secondary plot of slopes (Kmapp/Vmaxapp) versus concentrations of inhibitor): Competitive
